pIC50: −log10 of the molar value.

One assay deals with HL-60. Put plainly: Inhibition of [3H]Arachidonic acid production by stimulated HL60 (human leukemia) cells. It is filed as functional, cell-based.
One may read the pIC50 as −log10 of the IC50, conventionally taken in molar units. For `O=C(COc1ccc(C(=O)O)cc1)COc1ccc([S+]([O-])CCCCCc2ccccc2)cc1` (configuration not stated), the pIC50 was 4.74.
In turn, `O=C(COc1ccc(C(=O)O)cc1)COc1ccc2c(c1)C(=O)N(Cc1ccc(Cl)c(Cl)c1)C2=O` showed a pIC50 of 6.00.
The same measure, in the same setting: then `O=C(COc1ccc(SCCCCCc2ccco2)cc1)COc1ccc(C(=O)O)cc1`, with 6.00.
The molecule `O=C(COc1ccc(C(=O)O)cc1)COc1ccc(-c2noc(-c3ccc(Cl)c(Cl)c3)n2)cc1` had a pIC50 of 5.33.
Regarding `O=C(COc1ccc(C(=O)O)cc1)COc1ccc(S(=O)(=O)CCCCCc2ccccc2)cc1`, the pIC50 was 5.28.
With `O=C(COc1ccc(SCCCCSc2nccs2)cc1)COc1ccc(C(=O)O)cc1`, the pIC50 is 5.96.
As for `O=C(COc1ccc(OCc2ccc(Cl)c(Cl)c2)cc1)COc1ccc(C(=O)O)cc1`, the pIC50 was 5.70.
On the same count and under the same terms, the result for `O=C(COc1ccc(C(=O)O)cc1)COc1ccc(-c2noc(CCCCc3ccccc3)n2)cc1` reads 6.12; that for `O=C(COc1ccc(OCCCCSc2nc3ccccc3o2)cc1)COc1ccc(C(=O)O)cc1`, 5.96.
As for `O=C(COc1ccc(C(=O)O)cc1)COc1ccc(C(=O)OCCCCCc2ccccc2)cc1`, the pIC50 is 5.89.
For the molecule `O=C(COc1ccc(SCCCCCc2ccccc2)cc1)COc1ccc(C(=O)O)cc1`, the negative-log IC50 (pIC50) was 5.24.
In the case of `O=C(COc1ccc(OCCCCCc2ccccc2)cc1)COc1ccc(C(=O)O)cc1`, the negative-log IC50 (pIC50) was 5.59.
On the same count and under the same terms, the result for `O=C(COc1ccc(C(=O)O)cc1)COc1ccc2c(c1)C(=O)N(CCCCc1ccccc1)C2=O` reads 6.12; that for `O=C(COc1ccc(OCCCCCc2ccco2)cc1)COc1ccc(C(=O)O)cc1`, 5.32; that for `O=C(COc1ccc(C(=O)O)cc1)COc1ccc(-c2noc(Cc3ccc(Cl)c(Cl)c3)n2)cc1`, 5.57.

Molecular target in the next assay: not listed separately
The experiment in a line: In vitro inhibition of human recombinant cytosolic phospholipase A2 (c-PLA2).
For the molecule `O=C(COc1ccc(C(=O)O)cc1)COc1ccc([S+]([O-])CCCCCc2ccccc2)cc1` (configuration not stated), the pIC50 was 5.74.
In the case of `O=C(COc1ccc(C(=O)O)cc1)COc1ccc2c(c1)C(=O)N(Cc1ccc(Cl)c(Cl)c1)C2=O`, the pIC50 was 6.25.
In the case of `O=C(COc1ccc(OCCCCCC2CCCO2)cc1)COc1ccc(C(=O)O)cc1` (configuration not stated), the pIC50 is 5.28.
With `O=C(COc1ccc(SCCCCCc2ccco2)cc1)COc1ccc(C(=O)O)cc1`, the pIC50 was 7.10.
For `O=C(COc1ccc(C(=O)O)cc1)COc1ccc(-c2noc(-c3ccc(Cl)c(Cl)c3)n2)cc1`, the pIC50 was 7.40.
With `O=C(COc1ccc(C(=O)O)cc1)COc1ccc(C(=O)NCCCCc2ccccc2)cc1`, the pIC50 is 4.70.
On the same count and under the same terms, the result for `O=C(COc1ccc(C(=O)O)cc1)COc1ccc(S(=O)(=O)CCCCCc2ccccc2)cc1` reads 6.00.
The same measure, in the same setting: then `O=C(COc1ccc(SCCCCSc2nccs2)cc1)COc1ccc(C(=O)O)cc1`, with 6.12.
On the same count and under the same terms, then `Cn1ccnc1SCCCCOc1ccc(OCC(=O)COc2ccc(C(=O)O)cc2)cc1`, with 4.20; and `O=C(COc1ccc(OCc2ccc(Cl)c(Cl)c2)cc1)COc1ccc(C(=O)O)cc1`, with 6.60; and `O=C(COc1ccc(C(=O)O)cc1)COc1ccc(-c2noc(CCCCc3ccccc3)n2)cc1`, with 6.57.
With `CN(CCc1ccccc1)C(=O)CSc1ccc(OCC(=O)COc2ccc(C(=O)O)cc2)cc1`, the negative-log IC50 (pIC50) is 4.47.
As to `O=C(COc1ccc(OCCCCSc2nc3ccccc3o2)cc1)COc1ccc(C(=O)O)cc1`, the pIC50 was 6.85.
As for `O=C(COc1ccc(C(=O)O)cc1)COc1ccc(C(=O)OCCCCCc2ccccc2)cc1`, the negative logarithm of the IC50 (pIC50) is 7.30.
As to `O=C(COc1ccc(SCCCCCc2ccccc2)cc1)COc1ccc(C(=O)O)cc1`, the negative-log IC50 (pIC50) is 7.10.
As to `CCCCCCCCCCOc1ccc(OCC(=O)COc2ccc(C(=O)O)cc2)cc1`, the negative-log IC50 (pIC50) is 7.52.
`O=C(COc1ccc(OCCCCCc2ccccc2)cc1)COc1ccc(C(=O)O)cc1`: the pIC50 is 6.34.
Turning to `O=C(COc1ccc(SCCCCC(=O)N2CCCCC2)cc1)COc1ccc(C(=O)O)cc1`, the pIC50 is 4.92.
For `O=C(COc1ccc(C(=O)O)cc1)COc1ccc2c(c1)C(=O)N(CCCCc1ccccc1)C2=O`, the negative logarithm of the IC50 (pIC50) is 6.74.
As for `CCOCCCCCCCOc1ccc(OCC(=O)COc2ccc(C(=O)O)cc2)cc1`, the negative logarithm of the IC50 (pIC50) was 5.77.
Same read-out and setting: the result for `O=C(COc1ccc(OCCCCCc2ccco2)cc1)COc1ccc(C(=O)O)cc1` reads 6.23; that for `O=C(COc1ccc(C(=O)O)cc1)COc1ccc(-c2noc(Cc3ccc(Cl)c(Cl)c3)n2)cc1`, 7.05.

These data come from ChEMBL document CHEMBL1147487, “Synthesis and evaluation of substrate-mimicking cytosolic phospholipase A2 inhibitors--reducing the lipophilicity of the arachidonyl chain isostere” (Bioorg Med Chem Lett, 2004).
